Measurements taken from patent US5192799A, “Coumaran group containing amine compounds and their acid addition salts and quaternary ammonium salts and the use thereof as anti arrhythmic agents and as psychotropic agents” (Mitsui Petrochemical Industries, Ltd., priority 1987, dated 1993).
Where two headings read alike, the source gives them in different places.

Experiments:
[1] = test system: right ventricle (effective refractory period); experiment: Activity on ERP of the right ventricle; assay type: in vivo, adult mongrel dog; settings: Canis lupus familiaris, iv, read-out: ERP % (ERP prolonging activity)
Procedure: The pharmacological effects of the compounds of this invention represented by general formula (1) were studied. By using the heart of an adult mongrel dog, the activity of the compounds of general formula (1) were tested in vitro and in vivo. The heart of an anaethetized dog was extracted and suspended in a chamber at 37° C. in Tyrode's solution. The drug was added to Tyrode's solution being perfused through the heart specimen, and electrophysiological effects of the drug on cardiac action potential duration (APD) and maximum rate of depolarization were studied. An anaethetized dog was cut open at the chest. […] In an anaethetized and open-chested adult mongrel dug, a silver-silver chloride electrode was sutured to the right ventricle, and ventricular pacing was performed at a stimulation interval of 400 msec for a duration time of 4 msec, twice diastolic threshold. Then, a small amount of alcohol was injected through the sinus artery to extinguish the pacemaker activity, and under ventricular pacing, ERP was measured. Ten stimulations were taken as one train, and the interval between trains when the response to the first stimulation disappeared was defined as ERP. […] ERP before drug administration (intravenously or intraduodenally) was taken as 100%, and ERP prolonging activity of the drugs was expressed by %.

Purkinje fiber = experiment: Effect on APD (APD75, field-stimulated right ventricular free wall); assay type: cell-based, adult mongrel dog; settings: Canis lupus familiaris, purkinje, 20 min, read-out: APD75 % (percent change in APD75); for activation at 10 µg/mL: dose 10 μg/ml
Procedure: The pharmacological effects of the compounds of this invention represented by general formula (1) were studied. By using the heart of an adult mongrel dog, the activity of the compounds of general formula (1) were tested in vitro and in vivo. The heart of an anaethetized dog was extracted and suspended in a chamber at 37° C. in Tyrode's solution. The drug was added to Tyrode's solution being perfused through the heart specimen, and electrophysiological effects of the drug on cardiac action potential duration (APD) and maximum rate of depolarization were studied. An anaethetized dog was cut open at the chest.
An adult mongrel dog was anaethetized with intravenous administration of pentobarbital, 30 mg/kg. The heart was quickly removed, and the right ventricular free wall was dissected in the Tyrode's solution. The right ventricular free wall was fixed within an incubator at 37° C., and field stimulation at 1 Hz was carried out. Intracellular potentials were measured by piercing glass microelectrodes (10-20 megaohms) into the Purkinje fiber and the wave form of cardiac action potential drawn on an oscilloBraun tube via an amplifier was analyzed by a computer. Value of APD was obtained at 75% of full repolarization (APD75). The drug was added to Tyrode's solution (20 ml) perfused through the specimen. The effect of the drug was expressed by a percent change in APD75 after incubation for 20 minutes with the control value of APD before application of the drug being taken as 100%.

in vivo = settings: mouse, in vivo, po
Procedure: By using male ddY-strain 5-week old mice (3 to 4 per group), the compounds of general formula (1) were each administered orally or intraperitoneally as a solution in saline or as a suspension in methyl cellulose, and 24 hours after the administration, the toxicity of the compounds was evaluated.

[2] = 0.1 mg/kg i.v., ERP before drug = 100%
[3] = 0.3 mg/kg i.v., ERP before drug = 100%
[4] = 1 mg/kg i.v., ERP before drug = 100%
[5] = dose 1 μg/ml, 20 minutes incubation, 37° C., 1 Hz, control before drug = 100%
[6] = dose 3 μg/ml, 20 minutes incubation, 37° C., 1 Hz, control before drug = 100%
[7] = 20 minutes incubation, 37° C., 1 Hz, control before drug = 100%
[8] = LD50 p.o., p.o., 24 hours after administration, male ddY mice
[9] = 3 mg/kg i.v., ERP before drug = 100%

Structure (SMILES) | change in vivo at 0.1 mg/kg [1, 2] | change in vivo at 0.3 mg/kg [1, 3] | change in vivo at 1 mg/kg [1, 4] | activation at 1 µg/mL (Purkinje fiber; [5]) | activation at 3 µg/mL (Purkinje fiber; [6]) | activation at 10 µg/mL (Purkinje fiber; [7]) | LD50 at 24 h (in vivo; [8]) | change in vivo at 3 mg/kg [1, 9] | LD50 at 24 h (in vivo) | change in vivo at 0.1 mg/kg [1] | change in vivo at 0.3 mg/kg [1] | change in vivo at 1 mg/kg [1] | change in vivo at 3 mg/kg [1] | activation at 1 µg/mL (Purkinje fiber) | activation at 3 µg/mL (Purkinje fiber)
CCCCCCCN(CC)CCOc1ccc2c(c1)OCC2=O [Compound 196] | 5% | 5% | 18% | 7% | 10% | 11% | ~300 mg/kg |  |  |  |  |  |  |  | 
CCCCCCCN(CC)CCCOc1ccc2c(c1OC)OCC2=O [Compound 244] | 0% | 9% | 9% | 6% | 9% | 11% | ~300 mg/kg | 17% |  |  |  |  |  |  | 
CC(C)N(CCCOc1ccc2c(c1)OCC2=O)C(C)C [Compound 116] | 3% | 7% | 9% | 14% | 38% | 44% | > 300 mg/kg | 9% |  |  |  |  |  |  | 
CCN(CCCOc1ccc2c(c1)OCC2=O)CC1CCCO1 (stereo not shown) [Compound 184] | 4.3 ± 2.2% | 6.3 ± 3.4% | 6.3 ± 3.4% |  | 16% | 31% | ~300 mg/kg |  |  |  |  |  |  |  | 
CC(C)C1CCN(CCCOc2ccc3c(c2)OCC3=O)CC1 [Compound 1278] | 1.6 ± 1.6% | 4.8 ± 1.6% | 13 ± 2.4% |  | 9% | 24% | > 300 mg/kg | 19.8 ± 0.6% |  |  |  |  |  |  | 
O=C1COc2cc(OCCCN3CCC(CO)CC3)ccc21 [Compound 1290] | 0% | 5.9% | 11.8% |  | 11% | 28% |  | 17.7% | < 300 mg/kg |  |  |  |  |  | 
CCCCCCCN(CC)CC(O)COc1ccc2c(c1)OCC2=O.Cc1ccc(S(=O)(=O)O)cc1 (stereo not shown) [Compound 216, 6-[3-(N-ethyl-N-heptylamino)-2-hydroxypropyloxy]coumaran-3-one p-toluenesu lfonate] |  |  |  |  |  |  | 300 to 600 mg/kg |  |  | 8% | 8% | 8% | 8% | 13% | 17%
CCOC(=O)C1CCN(CCCOc2ccc3c(c2)OCC3=O)CC1 [Compound 1282] | 0% | 0% | 6% |  | 11% | 19% | > 300 mg/kg | 6% |  |  |  |  |  |  | 
CC1CCCCN1CCCOc1ccc2c(c1)OCC2=O (stereo not shown) [Compound 1114] |  |  | 3% | 11% | 22% | 35% | > 300 mg/kg | 8% |  |  |  |  |  |  | 
CCCCCCCN(CC)CCCCOc1ccc2c(c1)OCC2=O [Compound 212] | 7.1 ± 3.4% | 7.1 ± 3.4% | 13.8 ± 3.6% | 4% | 8% |  | 300 to 600 mg/kg | 13.8 ± 3.6% |  |  |  |  |  |  | 
